Results as given in ChEMBL document CHEMBL6074707, “Targeting Cancer: A New Era in Cancer Therapy through Immune Fitness Modulation and KRAS Degradation” (ACS Med Chem Lett, 2024).

Columns and labels:
[1] = biological target: Protein cereblon/GTPase KRas (Homo sapiens, UniProt P01116+Q96SW2, G12D); experiment: PROTAC activity at CRBN/KRAS G12D mutant in human ASPC1 cells assessed as induction of protein degradation incubated for 24 hrs by Western blot analysis; format: cell-based
[2] = tested on: Protein cereblon/GTPase KRas (Homo sapiens), P01116+Q96SW2 [G12D]; experiment: PROTAC activity at CRBN/KRAS G12D mutant in human ASPC1 cells assessed as induction of protein degradation incubated for 24 hrs by Western blot analysis relative to control; format: cell-based
Sequence of Protein cereblon/GTPase KRas (Homo sapiens), P01116+Q96SW2 [G12D] (P01116 whole entry G12D): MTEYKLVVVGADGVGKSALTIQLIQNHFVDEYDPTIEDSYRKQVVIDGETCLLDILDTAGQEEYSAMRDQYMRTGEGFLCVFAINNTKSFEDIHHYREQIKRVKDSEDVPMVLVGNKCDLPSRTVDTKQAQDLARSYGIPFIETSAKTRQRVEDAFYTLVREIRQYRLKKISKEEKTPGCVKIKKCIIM
Sequence of Protein cereblon/GTPase KRas (Homo sapiens), P01116+Q96SW2 [G12D] (Q96SW2 whole entry partner): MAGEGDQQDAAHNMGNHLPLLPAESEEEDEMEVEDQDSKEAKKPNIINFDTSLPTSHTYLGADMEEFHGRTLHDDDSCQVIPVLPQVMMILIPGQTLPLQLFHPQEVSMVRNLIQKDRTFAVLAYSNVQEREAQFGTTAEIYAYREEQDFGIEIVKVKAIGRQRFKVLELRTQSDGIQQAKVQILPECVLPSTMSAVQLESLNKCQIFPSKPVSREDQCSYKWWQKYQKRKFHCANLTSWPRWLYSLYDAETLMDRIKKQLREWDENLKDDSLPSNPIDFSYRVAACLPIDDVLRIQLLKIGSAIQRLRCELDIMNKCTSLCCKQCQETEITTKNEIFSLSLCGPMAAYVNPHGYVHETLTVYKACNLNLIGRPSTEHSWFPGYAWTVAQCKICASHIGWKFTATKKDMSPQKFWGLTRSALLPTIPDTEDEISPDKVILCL

Sequence of Protein cereblon/GTPase KRas (P01116 whole entry G12D, stated change not applied): as the sequence (P01116 whole entry G12D) above
Sequence of Protein cereblon/GTPase KRas (Q96SW2 whole entry, stated change not applied): as the sequence (Q96SW2 whole entry partner) above

Row | SMILES | DC50 [1] | Emax [2]
1 | C#Cc1c(F)ccc2cc(O)cc(-c3ncc4c(N5C[C@H]6CC[C@@H](C5)N6)nc(OCCN5CCC6(CC5)CCN(CC5CCN(c7ccc8c(c7)CN(C7CCC(=O)NC7=O)C8=O)CC5)CC6)nc4c3F)c12 (some centres undefined) | ≤ 0.1 µM | > 70%
2 | C#Cc1c(F)ccc2cc(O)cc(-c3ncc4c(N5C[C@H]6CC[C@@H](C5)N6)nc(OC[C@@H]5C[C@@H](OC6CCN(CC7CCN(c8ccc9c(c8)n(C)c(=O)n9C8CCC(=O)NC8=O)CC7)CC6)CN5C)nc4c3F)c12 (some centres undefined) | ≤ 0.1 µM | > 70%
3 | C#Cc1c(F)ccc2cc(O)cc(-c3ncc4c(N5C[C@H]6CC[C@@H](C5)N6)nc(OCCN5CCC(CC6CCN(CC7CCN(c8ccc9c(c8)CN(C8CCC(=O)NC8=O)C9=O)CC7)CC6)CC5)nc4c3F)c12 (some centres undefined) | ≤ 0.1 µM | > 70%
4 | C#Cc1c(F)ccc2cc(O)cc(-c3ncc4c(N5C[C@H]6CC[C@@H](C5)N6)nc(OCCN5CCC(CC6(F)CCN(CC7CCN(c8ccc9c(c8)CN(C8CCC(=O)NC8=O)C9=O)CC7)CC6)CC5)nc4c3F)c12 (some centres undefined) | > 1 µM | 25%
5 | C#Cc1c(F)ccc2cc(O)cc(-c3ncc4c(N5C[C@H]6CC[C@@H](C5)N6)nc(OCCN5CCC(CN6CCC7(CC6)CCN(c6ccc8c(c6F)CN(C6CCC(=O)NC6=O)C8=O)CC7)CC5)nc4c3F)c12 (some centres undefined) | ≤ 0.1 µM | > 70%
6 | C#Cc1c(F)ccc2cc(O)cc(-c3ncc4c(N5CC6CCC(C5)N6)nc(OC[C@]56CCCN5[C@H](CN5CCN(CC7CCN(c8ccc9c(c8)CN(C8CCC(=O)NC8=O)C9=O)CC7)CC5)CC6)nc4c3F)c12 (some centres undefined) | ≤ 0.1 µM | > 70%
7 | C#Cc1c(F)ccc2cc(O)cc(-c3ncc4c(N5C[C@H]6CC[C@@H](C5)N6)nc(OCCN5CCC(CN6CC7(CCN(c8ccc9c(c8)CN(C8CCC(=O)NC8=O)C9=O)CC7)C6)CC5)nc4c3F)c12 (some centres undefined) | ≤ 0.1 µM | > 70%
8 | C#Cc1c(F)ccc2cc(O)cc(-c3ncc4c(N5C[C@H]6CC[C@@H](C5)N6)nc(OCCN5CCC(CC6CCN(CC7CCN(c8ccc9c(c8)n(C)c(=O)n9C8CCC(=O)NC8=O)CC7)CC6)CC5)nc4c3F)c12 (some centres undefined) | ≤ 0.1 µM | > 70%
9 | C#Cc1c(F)ccc2cc(O)cc(-c3ncc4c(N5C[C@H]6CC[C@@H](C5)N6)nc(OCCN5CCC(C(F)(F)C6CCN(CC7CCN(c8ccc9c(c8F)CN(C8CCC(=O)NC8=O)C9=O)CC7)CC6)CC5)nc4c3F)c12 (some centres undefined) | ≤ 0.1 µM | > 70%
10 | C#Cc1c(F)ccc2cc(O)cc(-c3ncc4c(N5C[C@H]6CC[C@@H](C5)N6)nc(OCCN5CCC(CN6CCC7(CC6)CCN(c6ccc8c(c6)CN(C6CCC(=O)NC6=O)C8=O)CC7)CC5)nc4c3F)c12 (some centres undefined) | ≤ 0.1 µM | > 70%
11 | C#Cc1c(F)ccc2cc(O)cc(-c3ncc4c(N5C[C@H]6CC[C@@H](C5)N6)nc(OCCN5CCC(CC6CCN(CC7CCN(c8ccc9c(c8F)CN(C8CCC(=O)NC8=O)C9=O)CC7)CC6)CC5)nc4c3F)c12 (some centres undefined) | ≤ 0.1 µM | > 70%
12 | C#Cc1c(F)ccc2cc(O)cc(-c3ncc4c(N5C[C@H]6CC[C@@H](C5)N6)nc(OC[C@@H]5C[C@@H](OC6CCN(c7ccc8c(c7F)CN(C7CCC(=O)NC7=O)C8=O)CC6)CN5C)nc4c3F)c12 (some centres undefined) | ≤ 0.1 µM | > 70%
